Patent US8293240B2, “Method of treating drug-resistant cancer” (The Regents of the University of Colorado, priority 2004, dated 2012)

Assays:
[1] = system: HL60 MDR human leukemia cells; experiment: percent death of HL60 MDR cells (flow cytometry, live versus dead); assay type: cell-based
Method: Dot plots as a function of live versus dead cells. The cells were cultured at a concentration of 0.5 to 1 million cells per ml. Cells were untreated or treated with or 2-deoxy-D-glucose and/or etomoxir and/or antibodies to UCP2 and used at dilutions or concentrations as indicated on the figure. The cells were cultured in the presence or absence of etomoxir at 100 micrograms/ml for 24 hours followed by treatment with antibody as indicated for an additional 24 or 48 hours (i.e. totals of 48 hours or 72 hours respectively). Cells were harvested and analyzed by flow cytometry. Each dot on the dot plot represents one cell. Five thousand cells were assessed for forward scatter (FS), as a function of cell size, versus side scatter (SS), as a function of cellular granularity. The upper elipse represents live cells by these criterion and the lower elipse in each dot plot represents the dead cells.
Statistical Analysis, Percents, and Geometric Mean Values Percents. Gating is a tool provided by Cell Quest software and allows for the analysis of a certain population of cells. Gating around both the live and dead cell populations gave a percent of the cell numbers that was in each population. After the gates were drawn, a percent value of dead cells was calculated by taking the number of dead cells divided by the number of total cells and multiplying by one hundred.
HL60 MDR human leukemia cells were cultured as described above under “Materials and Methods”. Cells were untreated or treated with etomoxir, with 2-deoxy-D-glucose, or with a combination of etomoxir and 2-deoxy-D-glucose, at concentrations indicated in FIG. 27 for 24 hours. Cells were harvested and analyzed by flow cytometry.
Referring to FIGS. 31 and 32, HL60 MDR cells, cultured as described in Example 21, were untreated or treated with etomoxir, with 2-deoxy-D-glucose, or with a combination of etomoxir and 2-deoxy-D-glucose, at concentrations indicated in FIG. 31 for 48 hours. Cells were harvested and analyzed by flow cytometry.
Referring to FIGS. 35 and 36, HL60 MDR cells, cultured as described in Example 21, were treated with anti-UCP2 antibody and otherwise untreated or treated simultaneously with etomoxir, 2-deoxy-D-glucose, or both, at concentrations indicated in FIG. 35 for 48 hours. Cells were harvested and analyzed by flow cytometry.

[2] = system: RD cells (rhabdomyosarcoma cells-not drug resistant); experiment: percent death of RD cells (flow cytometry, live versus dead); assay type: cell-based
Method: The cells were cultured at a concentration of 0.5 to 1 million cells per ml. Cells were untreated or treated with or 2-deoxy-D-glucose and/or etomoxir and/or antibodies to UCP2 and used at dilutions or concentrations as indicated on the figure. The cells were cultured in the presence or absence of etomoxir at 100 micrograms/ml for 24 hours followed by treatment with antibody as indicated for an additional 24 or 48 hours (i.e. totals of 48 hours or 72 hours respectively). Cells were harvested and analyzed by flow cytometry. Each dot on the dot plot represents one cell. Five thousand cells were assessed for forward scatter (FS), as a function of cell size, versus side scatter (SS), as a function of cellular granularity. The upper elipse represents live cells by these criterion and the lower elipse in each dot plot represents the dead cells.
Gating is a tool provided by Cell Quest software and allows for the analysis of a certain population of cells. Gating around both the live and dead cell populations gave a percent of the cell numbers that was in each population. After the gates were drawn, a percent value of dead cells was calculated by taking the number of dead cells divided by the number of total cells and multiplying by one hundred.
Referring to FIGS. 29 and 30, RD cells (rhabdomyosarcoma cells-not drug resistant), cultured as described above under “Materials and Methods” were untreated or treated with etomoxir, with 2-deoxy-D-glucose, or with a combination of etomoxir and 2-deoxy-D-glucose, at concentrations indicated in FIG. 29 for 24 hours. Cells were harvested and analyzed by flow cytometry.
Referring to FIGS. 33 and 34, RD cells, cultured as described in Example 22, were untreated or treated with etomoxir, with 2-deoxy-D-glucose, or with a combination of etomoxir and 2-deoxy-D-glucose, at concentrations indicated in FIG. 33 for 48 hours. Cells were harvested and analyzed by flow cytometry.
Referring to FIGS. 37 and 38, RD cells, cultured as described in Example 22, were treated with anti-UCP2 antibody and otherwise untreated or treated simultaneously with etomoxir, 2-deoxy-D-glucose, or both, at concentrations indicated in FIG. 37 for 48 hours. Cells were harvested and analyzed by flow cytometry.

B16F1 melanoma cells = experiment: cell surface Fas (CD95) expression on B16F1 melanoma cells; assay type: cell-based, mouse; details: 48 hours
Method: (§1) Cell Surface Staining. Non-permeabilized cells were stained with antibodies to the cell surface receptors Fas (CD95) (Pharmingen) or with antibodies to uncoupling proteins (anti-UCP2 antibody) (Alpha Diagnostic International). Antibodies for both the isotype control and actual stain were added to the cell suspension, mixed, and then placed on ice for and incubation of 25 minutes in the dark. Subsequently the cells were centrifuged at 300×g for 5 minutes and the supernatant removed. The cells were washed one time with 100 μL of PBS/2.5% FBS and then transferred into flow cyotmetric tubes containing 500 μL of PBS/2.5% FBS for analysis.
B16F1 melanoma cells were cultured at a concentration of 0.5 to 1 million cells per ml. Cells were harvested and analyzed by flow cytometry. Dot plots are shown in FIG. 15 as functions of live versus dead cells. Each dot on the dot plot represents one cell. Five thousand cells were assessed for forward scatter (FS), as a function of cell size, versus side scatter (SS), as a function of cellular granularity. […]
Referring to FIGS. 17 and 18, B16F1 melanoma cells of Example 12 were untreated or treated with etomoxir at the indicated concentrations for 48 hours. Cells were harvested, stained with fluorochrome conjugated anti-Fas antibody (Pharmingen) and analyzed by flow cytometry.

[3] = system: drug sensitive L1210 cells; experiment: cell-surface Fas expression by flow cytometry, L1210; assay type: cell-based
Method: as §1
(§2) Geometric Mean Fluorescence. When analyzing data on Cell Quest software, a geometric mean value will be given for each histogram plotted. Once the stained sample was plotted against the control (isotype or unstained), geometric mean fluorescence values were obtained for both histogram peaks. The stained control sample value was subtracted from sample to identify the actual fluorescence of the stained sample over that of the control.
(§3) Drug sensitive L1210 cells and drug resistant L1210/DDP cells were cultured with etomoxir for 24 hours (Tx indicates treatment with etomoxir). The level of cell-surface Fas was determined using fluorochrome conjugated anti-Fas antibodies and flow cytometry. The Fas levels are measured relative to a control for staining artifacts. […]

[4] = system: drug resistant L1210/DDP cells; experiment: cell-surface Fas expression by flow cytometry, L1210/DDP; assay type: cell-based
Method: as §1, §2, §3

[5] = system: A-204 human rhabdomyosarcoma cells; experiment: cell surface UCP2 expression on A-204 cells; assay type: cell-based; details: A-204, 24, 48, & 72 hours, FIG. 26
Method: as §1
A204 human rhabdomyosarcoma cells were cultured at a concentration of 0.5 to 1 million cells per ml. Cells were untreated or treated with etomoxir at concentrations indicated in FIG. 24 for 24, 48, & 72 hours. Cells were harvested and analyzed by flow cytometry. Dot plots are shown in FIG. 24 as functions of live versus dead cells. […] Five thousand cells were assessed for forward scatter (FS), as a function of cell size, versus side scatter (SS), as a function of cellular granularity. […]
Cells were untreated or treated with etomoxir at the concentration indicated in FIG. 26 at the indicated concentration for 24, 48, & 72 hours. Cells were harvested, stained with fluorochrome conjugated with anti-UCP2 antibody and analyzed by flow cytometry.

[6] = system: human leukemia RU937 cells; experiment: mitochondrial membrane potential (MitoTracker), RU937; assay type: cell-based; details: RU937, 24 hours of incubation, FIG. 13
Method: Flow Cytometry. Cells were harvested, counted, and resuspended at 10^6 cells/100 μl of PBS containing 2.5% fetal calf serum in preparation for flow cytometric analysis. Cells were stained for intracellular H202 using 6-carboxy-2′,7′-dichlorodihydrofluorescein diacetate (DCF-DA, Molecular Probes, Eugene, Oreg.). Briefly, cells were incubated at 37° with 1 mM DCF-DA for 20 minutes, washed twice in PBS containing 2.5% fetal calf serum and analyzed flow cytometrically. Mitochondrial membrane potential was assessed using Mitotracker Red (CM-H2XROS, Molecular Probes, Eugene, Oreg.). The cells were resuspended in PBS containing 2.5% fetal calf serum containing a final concentration of 0.5 micromolar Mitotracker dye. The cells were incubated at 37° for 20 minutes, washed twice in PBS containing 2.5% fetal calf serum and analyzed flow cytometrically. Data were acquired on a Coulter Elite Epics or Excel flow cytometer (Coulter, Hialeah, Fla.) and analyzed with CellQuest software, (Becton Dickinson, San Jose, Calif.). […] Each sample population was classified for cell size (forward scatter) and complexity (side scatter), gated on a population of interest and evaluated using 5,000 cells. […]
The effects of etomoxir on human leukemia RU937 cells was determined. […]

CCOC(=O)C1(CCCCCCOc2ccc(Cl)cc2)CO1 (stereo not drawn) [etomoxir, 2-(6-(4-chlorophenoxy)-hexyl)-oxirane-2-carboxylic acid ethyl ester]
percent of cell deaths ([1]; HL60 MDR cells after 24 hours): 11%
percent of cell deaths ([1]; HL60 MDR cells after 48 hours): 14%
percent of cell deaths ([2]; RD cells after 24 hours): 57%
percent of cell deaths ([2]; RD cells after 48 hours): 64%
cell surface Fas expression (B16F1 melanoma cells; B16F1 dead cell population, FIG. 18): dose dependent increase in cell surface Fas expression
cell surface Fas expression (B16F1 melanoma cells; B16F1 live cell population, FIG. 17): dose dependent increase in cell surface Fas expression
cell-surface Fas expression ([3]; L1210, cultured with etomoxir for 24 hours): significant increases in cell surface Fas
Fas expression, combination with methotrexate ([3]; L1210, etomoxir with methotrexate, FIG. 8): increases the methotrexate-induced increases in Fas
cell-surface Fas expression ([4]; L1210/DDP, cultured with etomoxir for 24 hours): significant increases in cell surface Fas
cell surface Fas, combination with methotrexate ([4]; methotrexate-treated L1210 DDP, FIG. 8): promotes increases in cell surface Fas
cell surface UCP2 expression in the live cells [5]: time dependent “fold” increases
mitochondrial membrane potential (MitoTracker) [6]: increased the levels of mitochondrial membrane potential
